“Also recorded” adds a separate entry of the source.
Key:
[1] = Permeation through human abdominal skin in a flow-through cell; format: in vitro ADME; conditions: for skin penetration compared with CMA (times lower) / skin permeability / skin penetration compared with CMA (in words): relative to CMA; for average dose released by human abdominal skin after 24 hours: mean of 3 independent experiments, 5% suspension in aqueous 0.05% polysorbate 80 solution, dissected skin approx. 300 μm, approx. 19.7 mm^2, 34° C., receptor fluid pH 7.35
Description: Determination of Permeation of Chlormadinone Acetate (CMA) and 3β-Hydroxychlormadinone Acetate Through Human Abdominal Skin
Fragments of human abdominal skin arising during stomach reduction operations were placed in a Petri dish with dissection solution (Na^+: 144 mmol/l, K^+: 5.9 mmol/l, Ca^2+: 3.7 mmol/l, Cl,^−: 157 mmol/l). The skin fragments were reduced in thickness from the corium side, in several steps, down to a layer thickness of approx. 300 μm, while being kept moist with the dissection solution. Mechanically stable dissected skin was thus obtained, consisting of epidermis with approx. 150-200 μm of cutis. The layer thickness of the dissected skin fragments was determined by measuring with an external screw-type micrometer made by MITUTOYO. The area of the dissected skin fragments used amounted to approx. 19.7 mm^2.
Permeation of CMA respectively 3β-hydroxychlormadinone acetate through human abdominal skin was determined in a flow-through cell, which is illustrated schematically in FIG. 1. A receptor fluid (1) was here pumped past the underside of the dissected skin (2) with a peristaltic pump at a rate of 270 μl per hour. The dissected skin was clamped between the upper part (3) and the lower part (4) of the permeability cell (5). From above, vehicle with 3β-hydroxychlormadinone acetate (5% suspension in aqueous 0.05% polysorbate 80 solution) or chlormadinone acetate (5% suspension in aqueous 0.05% polysorbate 80 solution) was applied in each case to the skin, which then diffused through the dissected skin (2) into the receptor fluid (1). The dissected skin was moistened by a stationary donor fluid (9), which is situated in a reservoir (7). The internal diameter of the receptor fluid feed line (6) was 0.6 mm, and the receptor fluid volume below the skin amounted to approx. 80 μl. The receptor fluid (1) was analysed at fixed intervals by means of a fraction collector (8) and then by HPLC. These experiments allowed a quantitative statement to be made about the amount of substance diffused as a function of time.
An aqueous, isotonic tris buffer (20 mmol/l) with 20% ethanol was used as the receptor fluid and adjusted with NaCl to 310 mosmol (0.9 wt. %). The pH value of the receptor fluid was 7.35. A hole punch was used to punch a piece corresponding to the area of the dissected skin out of a plaster containing the active ingredient to be investigated, said piece being stuck to the dissected skin. […] The experiments were carried out at a test temperature of 34° C. In each case 3 independent series of measurements were made with CMA respectively 3β-hydroxychlormadinone acetate.

[2] = Antiandrogenic efficacy compared with CMA; conditions: no method described

SMILES | skin penetration compared with CMA (times lower) [1] [times] | skin permeability / skin penetration compared with CMA (in words) [1] | antiandrogenic efficacy relative to CMA (ratio) [2] [times] | average dose released by human abdominal skin after 24 hours [1] [µg]
CC(=O)O[C@]1(C(C)=O)CC[C@H]2[C@@H]3C=C(Cl)C4=C[C@H](O)CC[C@]4(C)[C@H]3CC[C@@]21C [3α-hydroxychlormadinone acetate, 17α-acetoxychloropregna-4,6-dien-3α-ol-20-one] | 6 | far lesser degree of skin penetration compared with CMA | 0.7 | 
CC(=O)O[C@]1(C(C)=O)CC[C@H]2[C@@H]3C=C(Cl)C4=C[C@@H](O)CC[C@]4(C)[C@H]3CC[C@@]21C [3β-hydroxychlormadinone acetate, 17α-acetoxychloropregna-4,6-dien-3β-ol-20-one] | 6 | far lesser degree of skin penetration compared with CMA; also recorded: far less than that of CMA | 0.7 | 0.7
CC(=O)O[C@]1(C(C)=O)CC[C@H]2[C@@H]3C=C(Cl)C4=CC(=O)CC[C@]4(C)[C@H]3CC[C@@]21C [CMA, chlormadinone acetate] |  |  |  | 4.4

Reference: patent US8465763B2, “3-hydroxychlormadinone acetate for the topical treatment of androgen-dependent skin diseases” (Richter Gedeon Nyrt., priority 2006, dated 2013)
